Measurements reported in US20220305003A1, “METHODS OF TREATING CANCER WITH AN INHIBITOR OF ZNF827” (CHILDREN'S MEDICAL RESEARCH INSTITUTE, priority 2019, published 2022).

Key:
Assay type in all cases: cell-based
[1] = tested on: U-2 OS cells; experiment: RPA foci by immunofluorescence in U-2 OS cells
Experimental: (§1) Topotecan and aphidicolin were used in this study. For experiments where they were used to cause replication stress and DNA damage, cells were treated with topotecan 2 μg/mL for either 1 hour or 24 hours, or aphidicolin 1 μM for 20 hours. For replication fork stalling induction in the PCNA colocalisation experiments, cells were treated with aphidicolin 0.4 μM for 6-8 hours. Topotecan and aphidicolin were dissolved in DMSO. DMSO was used as a control.
(§2) Cells were transfected using Lipofectamine RNAiMAX transfection reagent (ThermoFisher Scientific) with an siRNA concentration of […]. For transfection in a 75 cm^2flask, 3 mL reduced serum medium Opti-MEM (Gibco) was combined with 15 μL of 20 μM siRNA, mixed gently to cover the surface area of the flask and incubated at room temperature for 5 minutes. 30 μL of Lipofectamine RNAiMAX transfection reagent was then added to the mixture, and mixed and incubated for a further 15 minutes at room temperature. Meanwhile, cells to be transfected were trypsinised, resuspended in DMEM supplemented with 10% FCS, and counted using a Beckman Coulter cell counter. 0.8-1×10^6 cells in DMEM supplemented with 10% FCS were directly pipetted onto the transfection mixture in the flask, and shaken gently to mix. Additional DMEM supplemented with 10% FCS was added to the flask up to a total volume of 15 mL. Cells were harvested 72 hours post-transfection for knockdown validation and subsequent experiments.
(§3) Cells cultured on coverslips were fixed in 2% paraformaldehyde in PBS at room temperature for 10 minutes. Cells fixed on coverslips were rinsed with deionised water, and then permeabilised using KCM buffer (120 mM potassium chloride, 20 mM NaCl, 10 mM Tris, pH 7.5, 0.1% Triton X-100) at room temperature for 10 minutes. Coverslips were blocked with antibody diluent buffer (ABDIL—20 mM Tris-Cl, pH 7.5, 2% BSA, 0.2% fish gelatine, 150 mM NaCl, 0.1% Triton X-100, 0.1% sodium azide) containing 100 μg/mL RNase A at room temperature for one hour. […] Quantitated analysis was conducted by automation with CellProfiler (Broad Institute).

[2] = tested on: HT1080 cells; experiment: Cell cycle analysis by flow cytometry (propidium iodide)
Experimental: For cell cycle analysis, cells were trypsinised, counted and collected by centrifugation at 1000 rpm for 5 minutes. 1×10^6 cells were resuspended in 0.5 mL PBS, then fixed in 5 mL of ice-cold 70% ethanol drop by drop whilst being gently vortexed. The cells were incubated on ice for 30 minutes then stored at −20° C. for 2-7 days until propidium iodide staining. Prior to propidium iodide (Sigma) staining, the ethanol fixed cells were centrifuged at 300×g for 6 minutes to remove ethanol, washed once with PBS, and resuspended in 0.5 mL PBS per 1×10^6 cells. The fixed cells were treated with 0.5 mg of RNase (Sigma) and 25 μg of propidium iodide at 37° C. for 30 minutes, and then allowed to return to room temperature in the dark for 10 minutes. Labelled cells were analysed using the BD FACSCanto Flow Cytometer (BD Biosciences) containing a blue air cooled 488 nm argon laser to excite propidium iodide. Between 10 000-15 000 events were collected at an approximate flow rate of 200 events/second. The forward scatter (FSC, size) and side scatter (SSC, internal granularity) of each cell was recorded. To discriminate and eliminate cell debris and doublets, the pulse area (FL2-A) was plotted against the pulse width (FL2-W). Doublets identified as cells with 4N DNA content and increasing pulse width were eliminated. A histogram displaying the cell counts against the FL2-A was used to calculate the percentage of cells in each cell cycle phase, as well as the percentage of non-viable cells. Data analysis was conducted using BD FACS Diva software (BD Bioscience).

[3] = tested on: U-2 OS cells; experiment: IncuCyte live cell growth and apoptosis (Nucview488 caspase 3) assay
Experimental: Considering the effects of ZNF827 depletion on DNA replication and the cell cycle, the impact of ZNF827 on cell proliferation and cell viability was examined. Live cell assays were performed on U-2 OS cells in the IncuCyte® to monitor real-time cell proliferation by confluency and cell viability using Nucview488, a fluorescent reporting dye for caspase 3 activity that allows quantitative measurement of apoptotic activity. Cells were treated with topotecan or DMSO control for the first half of the assay and treatments were removed for the remaining time.
Cells were seeded at 20-30% in a 96-well black plate with clear bottom (3603, Corning) and left to adhere at 37° C. with 10% CO2 for at least 3 hours. The media was aspirated and replaced with phenol red free media supplemented 2 μM Nucview® 488 Caspase-3 substrate (Biotium) and placed into the IncuCyte® for baseline imaging without drug treatment. Topotecan 2 μg/mL or DMSO control was added to the wells, and incubated at 37° C. with 10% CO2 for 1 hour. The media was then aspirated, cells were washed carefully once with warm PBS, and the media replaced with phenol red free media supplemented 2 μM Nucview® 488 Caspase-3 substrate (Biotium). The plate was then placed back into IncuCyte®, imaged immediately post drug treatment, and then every 4 hours for 72 to 84 hours in the phase and green channels. Image analysis was performed with the IncuCyte® Zoom software. Cell growth was measured as % confluency over time, and apoptotic activity as green object confluence/area over time.

[4] = tested on: HT1080 cells; experiment: RPA foci by immunofluorescence in HT1080 cells
Experimental: as §1, §2, §3

[5] = agent alone (topotecan 2 μg/mL 24 hr, or 72 hr siRNA knockdown in unchallenged cells)
[6] = agent alone (topotecan 2 μg/mL 1 hr, or 72 hr siRNA knockdown in unchallenged cells)
[7] = agent alone (topotecan 2 μg/mL 1 hour then removed, or ZNF827 depletion with DMSO)
[8] = agent alone (topotecan 2 μg/mL, or ZNF827 depletion vs scrambled control)
[9] = 72 hr siRNA knockdown of ZNF827 in topotecan-treated cells (2 μg/mL, 24 hr)

| Molecule | total nuclear RPA foci [1, 5] | cell cycle profile [2, 6] | cell proliferation (% confluency over time) [3, 7] | apoptotic activity (Nucview488 caspase 3) [3, 8] | total nuclear RPA foci [4, 5] | total nuclear RPA foci [1, 9] | cell cycle profile ([2]; 72 hr siRNA knockdown in conjunction with topotecan 2 μg/mL 1 hr) | cell proliferation (% confluency over time) ([3]; ZNF827 depletion in conjunction with topotecan 2 μg/mL) | apoptotic activity (Nucview488 caspase 3) ([3]; combination of ZNF827 depletion and topotecan, compared with topotecan alone) | total nuclear RPA foci [4, 9] |
| --- | --- | --- | --- | --- | --- | --- | --- | --- | --- | --- |
| CC[C@@]1(O)C(=O)OCc2c1cc1n(c2=O)Cc2cc3c(CN(C)C)c(O)ccc3nc2-1 [topotecan] | greatly induced RPA foci | distinct G2/M arrest | effectively inhibited cell growth | much greater apoptotic activity | RPA foci only became visible upon topotecan treatment | – | – | – | – | – |
| siZNF827: Stealth RNAi siRNA ZNF827HSS135819 duplex oligoribonucleotides (Invitrogen), SEQ ID NO: 12 and 13 (chain 1 GGGCAGUCUUCUGGCUGAGAAAUCA; chain 2 UGAUUUCUCAGCCAGAAGACUGCCC; listed as RNA, further chemistry not given here) | substantially increased the total number of nuclear RPA foci | subtle increase in S phase cells accompanied by a reduction in G2/M cells | reduced cell proliferation, surprisingly to a similar efficacy as topotecan | significantly higher apoptotic activity compared to scrambled control | did not change the total number of nuclear RPA foci | did not cause an observable increase in overall RPA foci | conspicuous G1 arrest while reducing the G2/M arrest | completely abrogated cell proliferation | exceeded markedly | significantly greater increase in overall nuclear RPA foci |
